Read-outs that look alike come from different tables or passages of the source. Where a SMILES comes first, the peptide text is derived from it. Where no end group is shown, it is not given here. [ ]: non-standard residue; d: D form. Aib = CC(C)(N)C(=O)O
Legend:
human GLP-1 receptor = human GLP-1 receptor (Homo sapiens, UniProt P43220); assay: Functional GLP-1 receptor assay, in vitro potency (CRE luciferase; whole cells); type: cell-based; settings: BHK cells expressing human GLP-1 receptor
[1] = system: Mouse monocyte/macrophage cell line, RAW 264.7; assay: Cholesterol efflux assay (3H-cholesterol, macrophage cell line); type: cell-based; settings: RAW 264.7, 4 hrs incubation, 0.1% human serum albumin; for 4 h Cholesterol Efflux Emax: ABCA1-mediated efflux; for EC50: read-out: 4 h Cholesterol Efflux EC50, ABCA1-mediated efflux (CPT-cAMP induced minus non-induced)
[2] = 0% HSA, read-out: GLP1R CRE luc 0% HSA EC50 Mean Value
[3] = GLP1R CRE luc 1% HSA EC50 Mean Value, 1% HSA

human GLP-1 receptor, sequence (P43220 24-463): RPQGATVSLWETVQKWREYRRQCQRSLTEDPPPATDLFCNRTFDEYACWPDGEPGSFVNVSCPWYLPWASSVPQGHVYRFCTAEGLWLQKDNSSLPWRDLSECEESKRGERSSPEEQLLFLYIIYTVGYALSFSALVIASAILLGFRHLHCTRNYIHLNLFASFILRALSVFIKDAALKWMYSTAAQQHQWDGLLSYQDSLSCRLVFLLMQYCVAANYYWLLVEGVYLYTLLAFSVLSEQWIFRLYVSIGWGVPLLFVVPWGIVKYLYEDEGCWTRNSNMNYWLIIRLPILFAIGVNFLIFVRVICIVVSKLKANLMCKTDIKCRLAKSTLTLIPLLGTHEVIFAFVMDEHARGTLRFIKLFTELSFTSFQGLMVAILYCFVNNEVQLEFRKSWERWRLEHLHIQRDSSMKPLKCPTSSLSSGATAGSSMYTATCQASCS

Compound	EC50 (human GLP-1 receptor; [2])	EC50 (human GLP-1 receptor; [3])	4 h Cholesterol Efflux Emax [1]	EC50 (human GLP-1 receptor; GLP1R CRE luc 0% HSA EC50 Mean Value, 0% HSA)	EC50 [1]
CC[C@H](C)[C@H](NC(=O)[C@H](Cc1ccccc1)NC(=O)[C@H](CCC(=O)O)NC(=O)[C@H](CCCCN)NC(=O)[C@@H](NC(=O)[C@H](C)NC(=O)[C@H](CCC(=O)O)NC(=O)CNC(=O)[C@H](CCC(=O)O)NC(=O)[C@H](CC(C)C)NC(=O)[C@H](Cc1ccc(O)cc1)NC(=O)[C@H](CO)NC(=O)[C@H](CO)NC(=O)[C@@H](NC(=O)[C@H](CC(=O)O)NC(=O)[C@H](CO)NC(=O)[C@@H](NC(=O)[C@H](Cc1ccccc1)NC(=O)[C@@H](NC(=O)CNC(=O)[C@H](CCC(=O)O)NC(=O)C(C)(C)NC(=O)[C@@H](N)Cc1c[nH]cn1)[C@@H](C)O)[C@@H](C)O)C(C)C)C(C)C)C(=O)N[C@@H](C)C(=O)N[C@@H](Cc1c[nH]c2ccccc12)C(=O)N[C@@H](CC(C)C)C(=O)N[C@H](C(=O)N[C@@H](CCC(=O)O)C(=O)N[C@@H](CCCCN)C(=O)NC(C)(C)C(=O)N[C@@H](CCCCN)C(=O)N[C@@H](CCC(=O)O)C(N)=O)C(C)C [Compound 63, [Aib8,Glu23,Val25,Glu34,Lys35,Aib36,Lys37]-GLP-1-(7-37)-peptidyl-Glu amide] (H-H[Aib]EGTFTSDVSSYLEGEAVKEFIAWLVEK[Aib]KE-NH2)	0.014 nM	0.005 nM	135%	–	–
CC[C@H](C)[C@H](NC(=O)[C@H](Cc1ccccc1)NC(=O)[C@H](CCC(=O)O)NC(=O)[C@H](CCCCN)NC(=O)[C@H](C)NC(=O)[C@H](C)NC(=O)[C@H](CCC(N)=O)NC(=O)[C@H](CCC(=O)O)NC(=O)[C@H](CCC(=O)O)NC(=O)[C@H](CC(C)C)NC(=O)[C@H](Cc1ccc(O)cc1)NC(=O)[C@H](CCCCN)NC(=O)[C@H](CO)NC(=O)[C@H](Cc1ccc(O)cc1)NC(=O)[C@H](CC(=O)O)NC(=O)[C@H](CO)NC(=O)[C@@H](NC(=O)[C@H](Cc1ccccc1)NC(=O)[C@@H](NC(=O)CNC(=O)[C@H](CCC(N)=O)NC(=O)[C@H](CO)NC(=O)[C@@H](N)Cc1c[nH]cn1)[C@@H](C)O)[C@@H](C)O)C(=O)N[C@@H](C)C(=O)N[C@@H](Cc1c[nH]c2ccccc12)C(=O)N[C@@H](CC(C)C)C(=O)N[C@@H](CC(C)C)C(=O)N[C@@H](CCC(=O)O)C(=O)N[C@@H](CCCCN)C(=O)NC(C)(C)C(=O)N[C@@H](CCCCN)C(=O)N[C@@H](CCC(=O)O)C(=O)N[C@@H](Cc1ccccc1)C(=O)N[C@@H](CC(C)C)C(N)=O [Compound 56] (H-HSQGTFTSDYSKYLEEQAAKEFIAWLLEK[Aib]KEFL-NH2; N-terminus assumed)	–	0.061 nM	–	0.118 nM	210 nM
CC[C@H](C)[C@H](NC(=O)[C@H](Cc1ccccc1)NC(=O)[C@H](CCC(=O)O)NC(=O)[C@H](CCCNC(=N)N)NC(=O)[C@@H](NC(=O)[C@H](C)NC(=O)[C@H](CCC(=O)O)NC(=O)[C@H](CCC(=O)O)NC(=O)[C@H](CCC(=O)O)NC(=O)[C@H](CCSC)NC(=O)[C@H](CCC(N)=O)NC(=O)[C@H](CCCCN)NC(=O)[C@H](CO)NC(=O)[C@H](CC(C)C)NC(=O)[C@H](CC(=O)O)NC(=O)[C@H](CO)NC(=O)[C@@H](NC(=O)[C@H](Cc1ccccc1)NC(=O)[C@@H](NC(=O)CNC(=O)[C@H](CCC(=O)O)NC(=O)C(C)(C)NC(=O)[C@@H](N)Cc1c[nH]cn1)[C@@H](C)O)[C@@H](C)O)C(C)C)C(=O)N[C@@H](CCC(=O)O)C(=O)N[C@@H](Cc1c[nH]c2ccccc12)C(=O)N[C@@H](CC(C)C)C(=O)N[C@@H](CCCCN)C(=O)N[C@@H](CC(N)=O)C(=O)N[C@@H](CCCCN)C(=O)NC(C)(C)C(=O)N[C@@H](CC(C)C)C(=O)N[C@@H](CCC(=O)O)C(=O)N[C@@H](Cc1ccccc1)C(=O)N[C@@H](CC(C)C)C(=O)N[C@@H](CCC(=O)O)C(=O)N1CCC[C@H]1C(=O)N[C@@H](CC(C)C)C(N)=O [Compound 39, [Aib2,Glu21,Lys29,Aib30,Leu31,Glu32,Phe33,Leu34,Glu35,Leu371-Exendin-4-(1-37)-peptide amide] (H-H[Aib]EGTFTSDLSKQMEEEAVREFIEWLKNK[Aib]LEFLEPL-NH2; N-terminus assumed)	0.032 nM	0.013 nM	113%	–	–
CC[C@H](C)[C@H](NC(=O)[C@H](Cc1ccccc1)NC(=O)[C@H](CCC(=O)O)NC(=O)[C@H](CCCNC(=N)N)NC(=O)[C@@H](NC(=O)[C@H](C)NC(=O)[C@H](CCC(=O)O)NC(=O)CNC(=O)[C@H](CCC(=O)O)NC(=O)[C@H](CC(C)C)NC(=O)[C@H](Cc1ccc(O)cc1)NC(=O)[C@H](CO)NC(=O)[C@H](CO)NC(=O)[C@@H](NC(=O)[C@H](CC(=O)O)NC(=O)[C@H](CO)NC(=O)[C@@H](NC(=O)[C@H](Cc1ccccc1)NC(=O)[C@@H](NC(=O)CNC(=O)[C@H](CCC(=O)O)NC(=O)C(C)(C)NC(=O)[C@@H](N)Cc1c[nH]cn1)[C@@H](C)O)[C@@H](C)O)C(C)C)C(C)C)C(=O)N[C@@H](C)C(=O)N[C@@H](Cc1c[nH]c2ccccc12)C(=O)N[C@@H](CC(C)C)C(=O)N[C@H](C(=O)N[C@@H](CCC(=O)O)C(=O)N[C@@H](CCCNC(=N)N)C(=O)NC(C)(C)C(=O)N[C@@H](CCCNC(=N)N)C(=O)N[C@@H](CCC(=O)O)C(=O)N[C@@H](Cc1ccccc1)C(=O)N[C@@H](CC(C)C)C(N)=O)C(C)C [Compound 43] (H-H[Aib]EGTFTSDVSSYLEGEAVREFIAWLVER[Aib]REFL-NH2)	0.086 nM	0.041 nM	82%	–	–
CC(C)C[C@H](NC(=O)[C@H](Cc1ccccc1)NC(=O)[C@H](CCC(=O)O)NC(=O)[C@H](CCCCN)NC(=O)C(C)(C)NC(=O)[C@H](CCCCN)NC(=O)[C@H](CCC(=O)O)NC(=O)[C@H](CC(C)C)NC(=O)[C@H](CC(C)C)NC(=O)[C@H](Cc1c[nH]c2ccccc12)NC(=O)[C@H](CCC(N)=O)NC(=O)[C@@H](NC(=O)[C@H](Cc1ccccc1)NC(=O)[C@H](CCC(=O)O)NC(=O)[C@H](CCCNC(=N)N)NC(=O)[C@H](C)NC(=O)[C@H](CCCNC(=N)N)NC(=O)[C@H](CCCCN)NC(=O)CNC(=O)[C@H](CC(=O)O)NC(=O)[C@H](CC(C)C)NC(=O)[C@H](Cc1ccc(O)cc1)NC(=O)[C@H](CCCCN)NC(=O)[C@H](CO)NC(=O)[C@H](Cc1ccc(O)cc1)NC(=O)[C@H](CC(=O)O)NC(=O)[C@H](CO)NC(=O)[C@@H](NC(=O)[C@H](Cc1ccccc1)NC(=O)[C@@H](NC(=O)CNC(=O)[C@H](CCC(N)=O)NC(=O)C(C)(C)NC(=O)[C@@H](N)Cc1c[nH]cn1)[C@@H](C)O)[C@@H](C)O)C(C)C)C(N)=O [Compound 25] (H-H[Aib]QGTFTSDYSKYLDGKRAREFVQWLLEK[Aib]KEFL-NH2)	0.591 nM	0.297 nM	68%	–	–

Now from value to compound, other results behind:

EC50 (human GLP-1 receptor; [2])	EC50 (human GLP-1 receptor; [3])	Compound	4 h Cholesterol Efflux Emax [1]	EC50 (human GLP-1 receptor; GLP1R CRE luc 0% HSA EC50 Mean Value, 0% HSA)	EC50 [1]
0.031 nM	0.02 nM	HAEGTFTSDLSKQMEEEAVREFIEWLKNKVLEFL-NH2 [Compound 69, [Ala2,Glu21,Lys29,Val30,Leu31,Glu32,Phe33,Leu34]-Exendin-4-(1-34)-peptide amide]	–	–	410 nM
0.103 nM	0.043 nM	CC[C@H](C)[C@H](NC(=O)[C@H](Cc1ccccc1)NC(=O)[C@H](CCC(=O)O)NC(=O)[C@H](CCCCN)NC(=O)[C@@H](NC(=O)[C@H](C)NC(=O)[C@H](CCC(=O)O)NC(=O)CNC(=O)[C@H](CCC(=O)O)NC(=O)[C@H](CC(C)C)NC(=O)[C@H](Cc1ccc(O)cc1)NC(=O)[C@H](CO)NC(=O)[C@H](CO)NC(=O)[C@@H](NC(=O)[C@H](CC(=O)O)NC(=O)[C@H](CO)NC(=O)[C@@H](NC(=O)[C@H](Cc1ccccc1)NC(=O)[C@@H](NC(=O)CNC(=O)[C@H](CCC(=O)O)NC(=O)C(C)(C)NC(=O)[C@@H](N)Cc1c[nH]cn1)[C@@H](C)O)[C@@H](C)O)C(C)C)C(C)C)C(=O)N[C@@H](CCCCN)C(=O)N[C@@H](Cc1c[nH]c2ccccc12)C(=O)N[C@@H](CC(C)C)C(=O)N[C@H](C(=O)N[C@@H](CCC(=O)O)C(=O)N[C@@H](CCCCN)C(=O)NC(C)(C)C(=O)N[C@@H](CCCCN)C(=O)N[C@@H](CCC(=O)O)C(=O)N[C@@H](Cc1ccccc1)C(=O)N[C@@H](CC(C)C)C(N)=O)C(C)C [Compound 86, [Aib8,Glu23,Val25,Lys30,Glu34,Lys35,Aib36,Lys37]-GLP-1-(7-37)-peptidyl-Glu-Phe-Leu amide] (H-H[Aib]EGTFTSDVSSYLEGEAVKEFIKWLVEK[Aib]KEFL-NH2)	102%	–	–
–	0.076 nM	CC[C@H](C)[C@H](NC(=O)[C@H](Cc1ccccc1)NC(=O)[C@H](CCC(=O)O)NC(=O)[C@H](CCCCN)NC(=O)[C@@H](NC(=O)[C@H](C)NC(=O)[C@H](CCC(=O)O)NC(=O)CNC(=O)[C@H](CCC(=O)O)NC(=O)[C@H](CC(C)C)NC(=O)[C@H](Cc1ccc(O)cc1)NC(=O)[C@H](CO)NC(=O)[C@H](CO)NC(=O)[C@@H](NC(=O)[C@H](CC(=O)O)NC(=O)[C@H](CO)NC(=O)[C@@H](NC(=O)[C@H](Cc1ccccc1)NC(=O)[C@@H](NC(=O)CNC(=O)[C@H](CCC(=O)O)NC(=O)C(C)(C)NC(=O)[C@@H](N)Cc1c[nH]cn1)[C@@H](C)O)[C@@H](C)O)C(C)C)C(C)C)C(=O)N[C@@H](C)C(=O)N[C@@H](Cc1c[nH]c2ccccc12)C(=O)N[C@@H](CC(C)C)C(=O)N[C@@H](CC(C)C)C(=O)N[C@@H](CCC(=O)O)C(=O)N[C@@H](CCCCN)C(=O)NC(C)(C)C(=O)N[C@@H](CCCCN)C(=O)N[C@@H](CCC(=O)O)C(=O)N[C@@H](Cc1ccccc1)C(=O)N[C@@H](CC(C)C)C(N)=O [Compound 84, [Aib8,Glu23,Val25,Leu33,Glu34,Lys35,Aib36,Lys37]-GLP-1-(7-37)-peptidyl-Glu-Phe-Leu amide] (H-H[Aib]EGTFTSDVSSYLEGEAVKEFIAWLLEK[Aib]KEFL-NH2)	94%	–	–

From patent US20150344540A1, “NOVEL GLP-1 RECEPTOR AGONISTS WITH CHOLESTEROL EFFLUX ACTIVITY” (NOVO NORDISK A/S, priority 2012, published 2015)
